Assay results reported in publication PMC12503911, “Cytotoxicity of Atropisomeric [1,1′‐Binaphthalene]‐2,2′‐Diamines (BINAM) and Analogs in Human Cancer Cells: Enantioselectivity, Structure–Activity Relationships, and Mechanism” (Chemmedchem, 2025).
Where two headings read alike, the source gives them in different places.

What was measured:
Assay in all cases: biochemical
Parameters in all cases: 33PanQinase radiometric kinase activity assay, residual activity in % of control, contract lab Reaction Biology
NEK9 = biological target: T1, NEK9 (Homo sapiens, UniProt Q8TD19); details: mean of intraexperimental duplicates, n = 1
T1 sequence (Q8TD19 1-979): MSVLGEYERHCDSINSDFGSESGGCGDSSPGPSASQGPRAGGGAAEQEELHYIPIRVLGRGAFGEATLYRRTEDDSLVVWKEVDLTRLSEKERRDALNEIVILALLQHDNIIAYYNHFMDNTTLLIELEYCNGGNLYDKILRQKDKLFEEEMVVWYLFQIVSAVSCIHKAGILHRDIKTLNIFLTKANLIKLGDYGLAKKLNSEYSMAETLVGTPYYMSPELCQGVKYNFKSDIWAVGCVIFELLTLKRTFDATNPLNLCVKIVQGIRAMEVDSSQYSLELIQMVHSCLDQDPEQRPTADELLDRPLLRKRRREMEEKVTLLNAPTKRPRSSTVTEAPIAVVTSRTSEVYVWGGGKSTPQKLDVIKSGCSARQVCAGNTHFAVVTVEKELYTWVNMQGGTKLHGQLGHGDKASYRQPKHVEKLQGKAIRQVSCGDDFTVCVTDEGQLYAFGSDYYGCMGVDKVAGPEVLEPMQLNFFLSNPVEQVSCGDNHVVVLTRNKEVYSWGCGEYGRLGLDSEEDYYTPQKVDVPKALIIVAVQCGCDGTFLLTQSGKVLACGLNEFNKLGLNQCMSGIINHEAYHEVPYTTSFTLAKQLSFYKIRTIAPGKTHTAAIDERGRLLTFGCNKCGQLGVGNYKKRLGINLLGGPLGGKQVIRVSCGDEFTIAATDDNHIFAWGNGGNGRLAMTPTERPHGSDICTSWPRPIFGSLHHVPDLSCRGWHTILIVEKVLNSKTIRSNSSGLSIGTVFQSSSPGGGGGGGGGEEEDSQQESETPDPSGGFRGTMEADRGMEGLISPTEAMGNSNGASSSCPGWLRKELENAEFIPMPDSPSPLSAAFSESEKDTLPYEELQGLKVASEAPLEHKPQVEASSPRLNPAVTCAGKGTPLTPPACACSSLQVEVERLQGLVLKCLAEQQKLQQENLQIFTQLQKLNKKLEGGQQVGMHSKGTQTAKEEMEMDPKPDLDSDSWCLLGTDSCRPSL
Experimental: (§1) Kinase Screening was performed at Reaction Biology (Freiburg, Germany) by using the ^33PanQinase Assay.^[ [90] ^] Based on this knowledge, we commissioned a kinase screening by the firm Reaction Biology, targeting those kinases whose inhibition has shown an indirect effect on microtubules. In our selection, we included additional kinases that are known to be involved in centrosome amplification (PLK4^[ [82] ^]), centrosome clustering (CDK1/2,^[ [83] ^] PLK1^[ [84] ^]), spindle multipolarity (SRC^[ [85] ^]), microtubule dynamics (AKT1^[ [86] ^]), and LIMK1/2 activation (ROCK1^[ [87] ^]) or are crucial for the mitosis (BUB1B, NEK2/9, WEE1^[ [88] ^]). Nonetheless, 1(R) and 1(S) at 10 µM had almost no inhibitory effects on any of the chosen kinases (Table 4 ). Only Aurora A (mean residual activity for 1(R): 86%, 1(S): 98%) and ASK1 (mean residual activity for 1(R): 90%, 1(S): 117%) were slightly enantioselectively impacted. However, we theorize that those marginal inhibitions are not explanatory for the antiproliferative and morphological effects of 1(R) on cancer cells.

AuroraA = biological target: T2, AuroraA (Homo sapiens, UniProt O14965); details: mean of intraexperimental duplicates, n = 1; read-out: Residual activities [% of control] / 1(S) 10 µM
T2 construct: gene AURKA
T2 sequence (O14965 1-403): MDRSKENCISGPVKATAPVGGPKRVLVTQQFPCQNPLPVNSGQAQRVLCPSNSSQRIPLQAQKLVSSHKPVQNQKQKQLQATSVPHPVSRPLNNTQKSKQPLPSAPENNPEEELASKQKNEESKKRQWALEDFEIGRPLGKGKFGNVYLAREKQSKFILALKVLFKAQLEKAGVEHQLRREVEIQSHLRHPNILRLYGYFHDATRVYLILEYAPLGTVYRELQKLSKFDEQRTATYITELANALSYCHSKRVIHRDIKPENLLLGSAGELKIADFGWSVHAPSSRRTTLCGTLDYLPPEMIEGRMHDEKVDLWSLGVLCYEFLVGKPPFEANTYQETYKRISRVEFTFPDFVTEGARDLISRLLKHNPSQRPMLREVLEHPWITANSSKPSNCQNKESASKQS
Experimental: as §1

LIMK1 = LIMK1 (Homo sapiens, UniProt P53667); details: mean of intraexperimental duplicates, n = 1; read-out: Residual activities [% of control] / 1(R) 10 µM
Experimental: as §1

Sequence of LIMK1 (P53667 whole entry): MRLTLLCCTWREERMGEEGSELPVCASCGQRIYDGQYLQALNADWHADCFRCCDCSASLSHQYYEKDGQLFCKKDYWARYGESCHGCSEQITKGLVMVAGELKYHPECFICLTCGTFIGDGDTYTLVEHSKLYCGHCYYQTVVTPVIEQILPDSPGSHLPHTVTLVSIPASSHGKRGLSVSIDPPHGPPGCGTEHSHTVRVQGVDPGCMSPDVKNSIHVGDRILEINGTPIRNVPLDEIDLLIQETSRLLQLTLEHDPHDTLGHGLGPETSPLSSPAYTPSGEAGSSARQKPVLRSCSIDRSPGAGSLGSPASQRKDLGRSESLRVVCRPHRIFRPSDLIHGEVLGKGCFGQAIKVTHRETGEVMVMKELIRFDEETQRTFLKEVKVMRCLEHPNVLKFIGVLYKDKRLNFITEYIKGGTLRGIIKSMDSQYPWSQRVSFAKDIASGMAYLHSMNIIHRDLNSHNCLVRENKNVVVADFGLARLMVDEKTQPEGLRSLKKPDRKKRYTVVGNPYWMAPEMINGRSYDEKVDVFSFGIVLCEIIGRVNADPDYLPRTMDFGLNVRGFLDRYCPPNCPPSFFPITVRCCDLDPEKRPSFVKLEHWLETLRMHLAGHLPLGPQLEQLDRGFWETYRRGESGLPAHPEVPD

Row | SMILES | remaining activity at 10 µM (NEK9; read-out: Residual activities [% of control] / 1(S) 10 µM) [%] | remaining activity at 10 µM (AuroraA) [%] | remaining activity at 10 µM (LIMK1) [%] | remaining activity at 10 µM (NEK9; read-out: Residual activities [% of control] / 1(R) 10 µM) [%]
1 | Nc1ccc2ccccc2c1-c1c(N)ccc2ccccc12 [1(S), S‐BINAM] | 96 | 98 | – | –
2 | Nc1ccc2ccccc2c1-c1c(N)ccc2ccccc12 [1(R), (R)‐[1,1′‐binaphthalene]‐2,2′‐diamine] | – | – | 103 | 94
